Tests used:
[1] = Prolonged DBU treatment of VKDNYI peptide resin (aspartimide formation); assay type: physicochemical; conditions: for D/L-Asu [%] / piperides [%]: DBU/piperidine/DMF (1:19:79), 225 minutes; for target [%]: target peptide VKDNYI, DBU/piperidine/DMF (1:19:79) over 225 minutes, 110 Fmoc removal cycles
Procedure: (§1) Automated peptide synthesis, piperidine treatments of the resin samples and final TFA cleavages are performed as described in the protocols of example 4. In addition, 50 mg peptide resin samples are treated with a solution of DBU/piperidine/DMF (1:19:79) over 225 minutes to investigate the aspartimide formation at harsher Fmoc deprotection conditions often used for complete Fmoc removals in aggregation prone sequences.
(§2) The resulting peptide samples are analysied and all relevant impurities identified by UPLC-MS analysis (Xevo Waters Q-TOF-1, lock mass = 556.277 (leu-enkephaline), LC-conditions: CHS 18 1,7 µm (100x2.1 mm) at 40°C; water acetonitrile gradient of 5% to 35 % B over 10 min where buffer A is 0.1 % formic acid in water and buffer B is 0.1 % formic acid in acetonitrile, flow 0.6 ml/min).
In table 3 the amounts of by-products formed after prolonged DBU treatments are summarized for all side-chain protections used in this invention. […] Since the DBU mediated Fmoc removals are much quicker than the piperidine mediated, this experiment again represents a Fmoc SPPS assembly of an 100mer after introducing the aspartic acid residue using exclusively DBU for Fmoc cleavage. Table 3: Results after 110 Fmoc removal cycles using DBU, target peptide = VKDNYI, the aspartimide (Asu) derived by-products are the aspartimide itself and the sum of piperidides

[2] = Prolonged piperidine treatment of VKDNYI peptide resin (aspartimide formation, Asp-Asn motif); assay type: physicochemical; conditions: for D/L-Asu [%] / piperidides [%] / target [%]: 110 Fmoc removal cycles; for target [%]: target peptide VKDNYI
Procedure: as §1, §2
In table 2 the amounts of by-products formed after the prolonged exposure of the peptide resins to piperidine (110 Fmoc removal cycles) are summarized for all side-chain protections used in this invention. […] Table 2: Results after 110 Fmoc removal cycles using piperidine, target peptide = VKDNYI, the aspartimide (Asu) derived by products are the aspartimide itself and the sum of piperidides

[3] = Prolonged piperidine treatment of VKDRYI peptide resin (aspartimide formation, Asp-Arg motif); assay type: physicochemical; conditions: for D/L-Asu [%] / piperidides [%] / target [%]: 110 Fmoc removal cycles; for target [%]: target peptide VKDRYI
Procedure: (§3) Automated peptide synthesis, piperidine treatments of the resin samples and final TFA cleavages are performed as described in the protocols of example 4. In addition, to evaluate the advantage of the protecting groups used in this invention in heat accelerated SPPS we treat 50 mg peptide resin samples with a solution of 20% piperidine in DMF at 60°C over 200 minutes. Microwave assisted peptide synthesis conditions are often used to shorten peptide synthesis times and increase coupling reaction and Fmoc deprotection.
In table 4 the amounts of by-products formed after the prolonged exposure of the peptide resins to piperidine (110 Fmoc removal cycles) are summarized for all side-chain protections used in this invention. Table 4: Results after 110 Fmoc removal cycles using piperidine, target peptide sequence = VKDRYI, the aspartimide (Asu) derived by-products are the aspartimide itself and the sum of piperidides

[4] = Prolonged piperidine treatment at 60°C of VKDRYI peptide resin (aspartimide formation); assay type: physicochemical; conditions: for D/L-Asu [%] / piperidides [%]: 20% piperidine in DMF at 60°C, 200 minutes; for target [%]: target peptide VKDRYI, 20% piperidine in DMF at 60°C over 200 minutes, 100 Fmoc removal cycles; for aspartimide by-products per cycle: piperidine at 60 degrees Celsius
Procedure: as §3
The application of microwave heating to SPPS is accelerating coupling and deprotection reactions leading to shorter cycle times, higher repetitive yields, and ultimately purer peptides. On the other hand, microwave energy can also lead to increased levels of aspartimide by-products. To overcome that drawback we evaluated the advantage of the side-chain protections used in this invention by exposing the peptide resins to Fmoc removal cycles at 60 degrees Celsius.
In table 5 the amounts of by-products formed after the prolonged exposure of the peptide resins to piperidine at 60 degree Celsius (100 Fmoc removal cycles) are summarized for all side-chain protections used in this invention. […] Table 5: Results after 100 Fmoc removal cycles using piperidine at 60°C, target peptide sequence = VKDRYI, the aspartimide (Asu) derived by-products are the aspartimide itself and the sum of piperidides

[5] = Prolonged treatment of VKDGYI peptide resin with 1 M Oxyma Pure and 20 % piperidine (aspartimide formation); assay type: physicochemical; conditions: VKDGYI; for Asu per 10' cycle / Asu [%] / piperidides [%]: Oxyma Pure +; for Asu [%] / piperidides [%] / target [%]: 18 hours; for target [%]: Oxyma Pure +: 1 M Oxyma Pure and 20 % piperidine in dimethylformamide
Procedure: [drawing 14] 50 mg samples of the corresponding aspartic acid derivatives of example 4 are treated over 18 hours with a solution of 1 M Oxyma Pure and 20 % piperidine in dimethylformamide. The peptides are cleaved off the resin with 95 % TFA and analysed with HPLC as well as MS to identify all aspartimide related products (conditions see example 4). The results are summarized in table 6: Table 6: Results after 110 Fmoc removal cycles using an acidic modifier in the piperidine mediated Fmoc removal cocktails, target peptide = VKDG YI, the aspartimide derived by-products are the aspartimide itself and the sum of piperidides

[6] = Prolonged piperidine treatment of VKDGYI peptide resin (aspartimide formation, Asp-Gly motif)
[7] = VKDGYI, 20 % piperidine in dimethylformamide
[8] = VKDGYI, 20 % piperidine in dimethylformamide, 18 hours, aspartimide
[9] = VKDGYI, 20 % piperidine in dimethylformamide, 18 hours, sum of piperidides
[10] = VKDGYI, Oxyma Pure -: 20 % piperidine only, 18 hours (as Table 1)
[11] = target peptide VKDGYI, 20 % piperidine in dimethylformamide over 18 hours, 110 Fmoc removal cycles

Row | Asu per 2' cycle ([1]; VKDNYI, DBU) | D/L-Asu [%] ([1]; VKDNYI) | piperides [%] ([1]; VKDNYI) | target [%] [1] [%] | Asu per 10' cycle ([2]; VKDNYI, piperidine) | D/L-Asu [%] ([2]; VKDNYI, piperidine) | piperidides [%] ([2]; VKDNYI, piperidine) | target [%] ([2]; piperidine) | Asu per 10' cycle ([3]; VKDRYI) | Half-life in cycles ([3]; VKDRYI) [cycles] | D/L-Asu [%] ([3]; VKDRYI) | piperidides [%] ([3]; VKDRYI) | target [%] [3] [%] | Half-life in cycles [4] [cycles] | D/L-Asu [%] ([4]; VKDRYI) | piperidides [%] ([4]; VKDRYI) | Asu per 10' cycle ([4]; VKDRYI, piperidine at 60°C) | target [%] [4] [%] | Asu per 10' cycle [5] | Asu [%] [5] [%] | further results | Compound
1 | 0.3 | 3.5 | 22.0 | 74.5 | 0.04 | 0.9 | 3.6 | 95.5 | 0.06 | 1202 | 2.6 | 3.6 | 93.8 | 718 | 4.9 | 4.3 | 0.1 | 90.8 |  |  | aspartimide formation per 2 minute Fmoc removal cycle ([1]; VKDNYI, DBU): less than 0.3%; aspartimide side reaction during the Fmoc removals, rate per cycle ([2]; VKDNYI, piperidine): 0.05%; aspartimide side reaction during the Fmoc removals per cycle ([3]; VKDRYI): less than 0.06% | CCCCC(CCCC)(CCCC)OC(=O)C[C@H](NC(=O)OCC1c2ccccc2-c2ccccc21)C(=O)O [Bno]
2 | 0.5 | 5.6 | 37.3 | 57.1 | 0.2 | 3.0 | 16.0 | 81.0 | 0.1 | 539 | 3.90 | 9.4 | 86.7 | 439 | 7.8 | 6.8 | 0.2 | 85.4 | 0.14 | 2.6 | Half-life in cycles [1]: 138 cycles; piperidides [%] [5]: 11.7%; target [%] [5]: 85.7%; Half-life in cycles [2]: 365 cycles; Asu per 10' cycle [%] [6, 7]: 0.4%; Asu [%] [6, 8]: 4.1%; piperidides [%] [6, 9]: 31.5%; Asu [%] ([6]; VKDGYI, Oxyma Pure -): 4.1%; Asu per 10' cycle ([6]; VKDGYI, Oxyma Pure -): 0.4; piperidides [%] ([6]; VKDGYI, Oxyma Pure -): 31.5%; target [%] [6, 10]: 64.4%; minimizes the aspartimide formation by a factor compared to Mpe ([6]; VKDGYI, relative to Mpe protection): two; target [%] [6, 11]: 64.4%; aspartimide by-products per cycle ([4]; VKDRYI): 0.2% | CCC(CC)(CC)OC(=O)C[C@H](NC(=O)OCC1c2ccccc2-c2ccccc21)C(=O)O [Epe, (2S)-N-((9H-fluoren-9-ylmethyloxy)carbonyl)aspartic acid-4-((3-ethyl)pent-3-yl) ester]
3 | 1.5 | 7.5 | 73.7 | 18.8 | 0.5 | 4.3 | 37.5 | 58.2 | 0.4 | 173 | 6.9 | 28.9 | 64.2 |  | 16.9 | 19.6 | 0.5 | 63.5 | 0.16 | 3.8 | Half-life in cycles ([1]; VKDNYI, DBU, 2' cycles): 46 cycles; piperidides [%] [5]: 12.0%; target [%] [5]: 84.2%; Half-life in cycles ([2]; VKDNYI, piperidine): 140 cycles; times more aspartimide per Fmoc removal cycle ([2]; VKDNYI, piperidine, in comparison to Bno): ten; Asu per 10' cycle [%] [6, 7]: 0.8%; Half-life in 10' cycles [6, 7]: 90 10' cycles; Asu [%] [6, 8]: 6.7%; piperidides [%] [6, 9]: 51.0%; Asu [%] ([6]; VKDGYI, Oxyma Pure -): 6.7%; Asu per 10' cycle ([6]; VKDGYI, Oxyma Pure -): 0.8; piperidides [%] ([6]; VKDGYI, Oxyma Pure -): 51.0%; target [%] [6, 10]: 42.3%; target [%] [6, 11]: 42.3%; times more aspartimide per Fmoc removal cycle ([3]; VKDRYI, in comparison to Bno): approximately seven; Half-life in cycles ([3]; VKDRYI, listed as Fmoc-Asp(OMpe)-OH): approx. 170 cycles; aspartimide by-products per cycle ([4]; VKDRYI): 0.5%; Half-life in cycles ([4]; VKDRYI, piperidine at 60°C): 153 cycles | CCC(C)(CC)OC(=O)C[C@H](NC(=O)OCC1c2ccccc2-c2ccccc21)C(=O)O [Mpe, Fmoc-Asp(OMpe)-OH, reference compound]

— patent EP2886531B1, “Aspartic acid derivatives” (Merck Patent GmbH, priority 2013, dated 2015)
